Reference: patent US9738603B2, “Complex of glucose derivative and proline, crystal, preparation method and use” (SHANGHAI YINGLI PHARMACEUTICAL CO., LTD., priority 2012, dated 2017)
Entries after “also recorded” stand apart in the source; their conditions may differ.

Test: Dynamic vapor sorption test
Format: physicochemical
Conditions: 25° C.; for weight increased finally: 95% RH; for sensitivity to moisture / hygroscopicity: dynamic vapor sorption isotherm, 0-95% RH
Experimental: 2. Parameters of dynamic vapor sorption test: The instrument: a dynamic moisture absorption analyzer (DVS Advantage, Surface Measurement System Ltd); Experimental temperature: 25° C.; Adsorption range: 0-95% relative humidity; Step interval: 5% relative humidity; Balance standard of weight gain: less than 0.01% weight change in 5 minutes; Longest time of balance: 120 minutes.

weight increased finally | moisture absorbed (relative humidity 50%) | moisture absorbed (weight gain against dry weight) (relative humidity increased from 0% to 85% RH) | SMILES | sensitivity to moisture / hygroscopicity
14.72% | about 4.8% | – | OC[C@H]1O[C@@H](c2ccc(Cl)c(Cc3ccc(OCC4(F)COC4)cc3)c2)[C@H](O)[C@@H](O)[C@@H]1O [compound A, (2S,3R,4R,5S,6R)-2-(4-chloro-3-(4-((3-fluorooxetan-3-yl)methoxy)benzyl)phenyl)-6-(hydroxymethyl)tetrahydro-2H-pyran-3,4,5-triol] | sensitive to moisture
about 9.967% | – | 2.174% | OC[C@H]1O[C@@H](c2ccc(Cl)c(Cc3ccc(OCC4(F)COC4)cc3)c2)[C@H](O)[C@@H](O)[C@@H]1O [eutectic crystal of the complex formed by compound A and L-p] [complex of (2S,3R,4R,5S,6R)-2-(4-chloro-3-(4-((3-fluorooxetan-3-yl)methoxy)benzyl)phenyl)-6-(hydroxymethyl)tetrahydro-2H-pyran-3,4,5-triol and bis(L-proline)] | not very sensitive to moisture; also recorded: low hygroscopicity
